Measured values published in ChEMBL document CHEMBL1124153, “Synthesis and renin inhibitory activity of angiotensinogen analogues having dehydrostatine, Leu psi [CH2S]Val, or Leu psi [CH2SO]Val at the P1-P1' cleavage site” (J Med Chem, 1988).
pIC50: −log10 of the molar value.

Tests used:
Renin = molecular target: T1, Renin (Homo sapiens, UniProt P00797); assay: In vitro inhibitory activity against renin from lyophilized human plasma; type: cell-free
T1 sequence (P00797 whole entry): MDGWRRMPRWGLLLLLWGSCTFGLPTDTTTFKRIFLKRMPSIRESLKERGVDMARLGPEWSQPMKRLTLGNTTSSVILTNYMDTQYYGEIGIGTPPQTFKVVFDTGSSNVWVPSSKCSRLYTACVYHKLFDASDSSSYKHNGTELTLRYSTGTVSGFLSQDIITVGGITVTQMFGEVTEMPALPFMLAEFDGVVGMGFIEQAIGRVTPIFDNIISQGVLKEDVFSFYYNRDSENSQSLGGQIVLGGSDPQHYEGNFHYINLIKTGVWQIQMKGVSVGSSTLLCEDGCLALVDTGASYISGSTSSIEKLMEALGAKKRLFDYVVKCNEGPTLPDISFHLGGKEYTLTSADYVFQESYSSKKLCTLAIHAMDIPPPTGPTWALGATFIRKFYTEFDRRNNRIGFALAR

Renin (Homo sapiens) = molecular target: T2, Renin (Homo sapiens) (UniProt P00797); assay: Inhibitory potency against renin relative to H-Pro-His-Pro-Phe-His-Phe-Phe-Val-Tyr-D-Lys-OH peptide
T2 sequence (whole entry): T1 sequence (P00797 whole entry)

Row | SMILES | pIC50 (Renin) | Relative potency (Renin (Homo sapiens))
1 | CC(C)[C@H](NC(=O)[C@H](Cc1ccccc1)NC(=O)[C@H](Cc1ccccc1)NC(=O)[C@H](Cc1cnc[nH]1)NC(=O)[C@H](Cc1ccccc1)NC(=O)[C@H]1CCCN1C(=O)[C@H](Cc1cnc[nH]1)NC(=O)[C@H]1CCCN1)C(=O)N[C@@H](Cc1ccc(O)cc1)C(=O)N[C@H](CCCCN)C(=O)O | 5.00 | –
2 | CC[C@@H](C)[C@H](NC(=O)[C@H](Cc1ccccc1)NC(=O)[C@H](Cc1ccccc1)NC(=O)[C@H](Cc1cnc[nH]1)NC(=O)[C@H](Cc1ccccc1)NC(=O)[C@H]1CCCN1C(=O)[C@H](Cc1cnc[nH]1)NC(=O)[C@H]1CCCN1)C(=O)N[C@@H](Cc1cnc[nH]1)C(=O)N[C@H](CCCCN)C(=O)O | 3.77 | –
3 | CC(C)[C@H](NC(=O)[C@H](Cc1ccccc1)NC(=O)[C@H](Cc1ccccc1)NC(=O)[C@H](Cc1c[nH]cn1)NC(=O)[C@H](Cc1ccccc1)NC(=O)[C@H]1CCCN1C(=O)[C@H](Cc1c[nH]cn1)NC(=O)[C@H]1CCCN1)C(=O)N[C@@H](Cc1ccc(O)cc1)C(=O)N[C@H](CCCCN)C(=O)O | – | 1
4 | CC[C@@H](C)[C@H](NC(=O)/C=C/[C@H](CC(C)C)NC(=O)[C@H](Cc1c[nH]cn1)NC(=O)[C@H](Cc1ccccc1)NC(=O)[C@H]1CCCN1C(=O)[C@H](Cc1c[nH]cn1)NC(=O)[C@H]1CCCN1)C(=O)N[C@@H](Cc1c[nH]cn1)C(=O)N[C@H](CCCCN)C(=O)O | – | 1.6
5 | CC[C@@H](C)[C@H](NC(=O)[C@@H](SC[C@H](CC(C)C)NC(=O)[C@H](Cc1c[nH]cn1)NC(=O)[C@H](Cc1ccccc1)NC(=O)[C@H]1CCCN1C(=O)[C@H](Cc1c[nH]cn1)NC(=O)[C@H]1CCCN1)C(C)C)C(=O)N[C@@H](Cc1c[nH]cn1)C(=O)N[C@H](CCCCN)C(=O)O | 5.22 | 1.6
6 | CC[C@@H](C)[C@H](NC(=O)[C@H](Cc1ccccc1)NC(=O)[C@H](Cc1ccccc1)NC(=O)[C@H](Cc1c[nH]cn1)NC(=O)[C@H](Cc1ccccc1)NC(=O)[C@H]1CCCN1C(=O)[C@H](Cc1c[nH]cn1)NC(=O)[C@H]1CCCN1)C(=O)N[C@@H](Cc1c[nH]cn1)C(=O)N[C@H](CCCCN)C(=O)O | – | 0.6
7 | CC[C@@H](C)[C@H](NC(=O)[C@H](C(C)C)[S+]([O-])C[C@H](CC(C)C)NC(=O)[C@H](Cc1c[nH]cn1)NC(=O)[C@H](Cc1ccccc1)NC(=O)[C@H]1CCCN1C(=O)[C@H](Cc1c[nH]cn1)NC(=O)[C@H]1CCCN1)C(=O)N[C@@H](Cc1c[nH]cn1)C(=O)N[C@H](CCCCN)C(=O)O (some centres not stated) | 5.60 | 4
8 | CC[C@@H](C)[C@H](NC(=O)/C=C/[C@H](CC(C)C)NC(=O)[C@H](Cc1cnc[nH]1)NC(=O)[C@H](Cc1ccccc1)NC(=O)[C@H]1CCCN1C(=O)[C@H](Cc1cnc[nH]1)NC(=O)[C@H]1CCCN1)C(=O)N[C@@H](Cc1cnc[nH]1)C(=O)N[C@H](CCCCN)C(=O)O | 5.21 | –
9 | CC[C@@H](C)[C@H](NC(=O)[C@@H](NC[C@H](CC(C)C)NC(=O)[C@H](Cc1c[nH]cn1)NC(=O)[C@H](Cc1ccccc1)NC(=O)[C@H]1CCCN1C(=O)[C@H](Cc1c[nH]cn1)NC(=O)[C@H]1CCCN1)C(C)C)C(=O)N[C@@H](Cc1c[nH]cn1)C(=O)N[C@H](CCCCN)C(=O)O | 7.31 | 200
